Measured values published in ChEMBL document CHEMBL3217532, “New analyses of MIC90 data to aid antibacterial drug discovery” (2011).

Assays:
Type in all cases: functional
Pseudomonas aeruginosa [1] = assay: Antimicrobial activity against Pseudomonas aeruginosa 1761-00
Pseudomonas aeruginosa [2] = assay: Antimicrobial activity against Pseudomonas aeruginosa 1512-08
Pseudomonas aeruginosa [3] = assay: Antimicrobial activity against Pseudomonas aeruginosa 1764-00
Pseudomonas aeruginosa [4] = assay: Antimicrobial activity against Pseudomonas aeruginosa 1562-05
Pseudomonas aeruginosa [5] = assay: Antimicrobial activity against Pseudomonas aeruginosa 1570-05
Pseudomonas aeruginosa [6] = assay: Antimicrobial activity against Pseudomonas aeruginosa 1760-00
Pseudomonas aeruginosa [7] = assay: Antimicrobial activity against Pseudomonas aeruginosa PA-75
Pseudomonas aeruginosa [8] = assay: Antimicrobial activity against Pseudomonas aeruginosa 1615-09
Pseudomonas aeruginosa [9] = assay: Antimicrobial activity against Pseudomonas aeruginosa 1565-05
Pseudomonas aeruginosa [10] = assay: Antimicrobial activity against Pseudomonas aeruginosa 1955-00
Pseudomonas aeruginosa [11] = assay: Antimicrobial activity against Pseudomonas aeruginosa 1752-00
Pseudomonas aeruginosa [12] = assay: Antimicrobial activity against Pseudomonas aeruginosa 1513-08
Pseudomonas aeruginosa [13] = assay: Antimicrobial activity against Pseudomonas aeruginosa 1523-08
Pseudomonas aeruginosa [14] = assay: Antimicrobial activity against Pseudomonas aeruginosa 1765-00
Pseudomonas aeruginosa [15] = assay: Antimicrobial activity against Pseudomonas aeruginosa PA-4990
Pseudomonas aeruginosa [16] = assay: Antimicrobial activity against Pseudomonas aeruginosa 1564-05
Pseudomonas aeruginosa [17] = assay: Antimicrobial activity against Pseudomonas aeruginosa 1954-00
Pseudomonas aeruginosa [18] = assay: Antimicrobial activity against Pseudomonas aeruginosa PA-4624
Pseudomonas aeruginosa [19] = assay: Antimicrobial activity against Pseudomonas aeruginosa 1509-08
Pseudomonas aeruginosa [20] = assay: Antimicrobial activity against Pseudomonas aeruginosa 1526-08
Pseudomonas aeruginosa [21] = assay: Antimicrobial activity against Pseudomonas aeruginosa 1567-05
Pseudomonas aeruginosa [22] = assay: Antimicrobial activity against Pseudomonas aeruginosa 1566-05
Pseudomonas aeruginosa [23] = assay: Antimicrobial activity against Pseudomonas aeruginosa PA-4991
Pseudomonas aeruginosa [24] = assay: Antimicrobial activity against Pseudomonas aeruginosa 1569-05
Pseudomonas aeruginosa [25] = assay: Antimicrobial activity against Pseudomonas aeruginosa 1957-00
Pseudomonas aeruginosa [26] = assay: Antimicrobial activity against Pseudomonas aeruginosa 1953-00
Pseudomonas aeruginosa [27] = assay: Antimicrobial activity against Pseudomonas aeruginosa 1956-00
Pseudomonas aeruginosa [28] = assay: Antimicrobial activity against Pseudomonas aeruginosa 1510-08
Pseudomonas aeruginosa [29] = assay: Antimicrobial activity against Pseudomonas aeruginosa 1515-08
Pseudomonas aeruginosa [30] = assay: Antimicrobial activity against Pseudomonas aeruginosa 1753-00
Pseudomonas aeruginosa [31] = assay: Antimicrobial activity against Pseudomonas aeruginosa 1766-00
Pseudomonas aeruginosa [32] = assay: Antimicrobial activity against Pseudomonas aeruginosa PA-4997
Pseudomonas aeruginosa [33] = assay: Antimicrobial activity against Pseudomonas aeruginosa PA-4995
Pseudomonas aeruginosa [34] = assay: Antimicrobial activity against Pseudomonas aeruginosa 1611-09
Pseudomonas aeruginosa [35] = assay: Antimicrobial activity against Pseudomonas aeruginosa PA-4993
Pseudomonas aeruginosa [36] = assay: Antimicrobial activity against Pseudomonas aeruginosa PA-4999
Pseudomonas aeruginosa [37] = assay: Antimicrobial activity against Pseudomonas aeruginosa 1514-08
Pseudomonas aeruginosa [38] = assay: Antimicrobial activity against Pseudomonas aeruginosa 1619-08
Pseudomonas aeruginosa [39] = assay: Antimicrobial activity against Pseudomonas aeruginosa 1568-05
Pseudomonas aeruginosa [40] = assay: Antimicrobial activity against Pseudomonas aeruginosa 1563-00
Pseudomonas aeruginosa [41] = assay: Antimicrobial activity against Pseudomonas aeruginosa 1951-00
Pseudomonas aeruginosa [42] = assay: Antimicrobial activity against Pseudomonas aeruginosa 1767-00
Pseudomonas aeruginosa [43] = assay: Antimicrobial activity against Pseudomonas aeruginosa 1527-08
Pseudomonas aeruginosa [44] = assay: Antimicrobial activity against Pseudomonas aeruginosa 1952-00
Pseudomonas aeruginosa [45] = assay: Antimicrobial activity against Pseudomonas aeruginosa PA-1757
Pseudomonas aeruginosa [46] = assay: Antimicrobial activity against Pseudomonas aeruginosa 1613-09
Pseudomonas aeruginosa [47] = assay: Antimicrobial activity against Pseudomonas aeruginosa 1612-09
Pseudomonas aeruginosa [48] = assay: Antimicrobial activity against Pseudomonas aeruginosa 1614-09
Pseudomonas aeruginosa [49] = assay: Antimicrobial activity against Pseudomonas aeruginosa 1768-00
Pseudomonas aeruginosa [50] = assay: Antimicrobial activity against Pseudomonas aeruginosa 1521-08
Pseudomonas aeruginosa [51] = assay: Antimicrobial activity against Pseudomonas aeruginosa 1561-05

Measured: MIC90

C[C@H]1[C@H](NC(=O)/C(=N\OC(C)(C)C(=O)O)c2csc(N)n2)C(=O)N1C(=O)NS(=O)(=O)n1nc(-c2cc(=O)c(O)c[nH]2)n(C[C@@H](O)CO)c1=O
2 µg/mL: Pseudomonas aeruginosa [31]
0.015 µg/mL: Pseudomonas aeruginosa [17] | Pseudomonas aeruginosa [38]
0.25 µg/mL: Pseudomonas aeruginosa [5] | Pseudomonas aeruginosa [6] | Pseudomonas aeruginosa [7] | Pseudomonas aeruginosa [8] | Pseudomonas aeruginosa [9] | Pseudomonas aeruginosa [12] | Pseudomonas aeruginosa [15] | Pseudomonas aeruginosa [18] | Pseudomonas aeruginosa [24] | Pseudomonas aeruginosa [26] | Pseudomonas aeruginosa [37] | Pseudomonas aeruginosa [46] | Pseudomonas aeruginosa [47]
4 µg/mL: Pseudomonas aeruginosa [45]
1 µg/mL: Pseudomonas aeruginosa [19] | Pseudomonas aeruginosa [28]
0.03 µg/mL: Pseudomonas aeruginosa [25] | Pseudomonas aeruginosa [27] | Pseudomonas aeruginosa [33] | Pseudomonas aeruginosa [34] | Pseudomonas aeruginosa [35]
0.06 µg/mL: Pseudomonas aeruginosa [3] | Pseudomonas aeruginosa [4] | Pseudomonas aeruginosa [10] | Pseudomonas aeruginosa [16] | Pseudomonas aeruginosa [21] | Pseudomonas aeruginosa [22] | Pseudomonas aeruginosa [40] | Pseudomonas aeruginosa [42] | Pseudomonas aeruginosa [49]
0.5 µg/mL: Pseudomonas aeruginosa [1] | Pseudomonas aeruginosa [14] | Pseudomonas aeruginosa [50] | Pseudomonas aeruginosa [51]
0.125 µg/mL: all other assays above

C[C@H]1[C@H](NC(=O)/C(=N\OC(C)(C)C(=O)O)c2csc(N)n2)C(=O)N1C(=O)NS(=O)(=O)n1nc(-c2cc(=O)c(O)c[nH]2)n(CC(N)=O)c1=O
0.06 µg/mL: Pseudomonas aeruginosa [17] | Pseudomonas aeruginosa [27] | Pseudomonas aeruginosa [33] | Pseudomonas aeruginosa [34] | Pseudomonas aeruginosa [35] | Pseudomonas aeruginosa [38] | Pseudomonas aeruginosa [49]
4 µg/mL: Pseudomonas aeruginosa [45]
0.125 µg/mL: Pseudomonas aeruginosa [4] | Pseudomonas aeruginosa [9] | Pseudomonas aeruginosa [10] | Pseudomonas aeruginosa [16] | Pseudomonas aeruginosa [21] | Pseudomonas aeruginosa [25] | Pseudomonas aeruginosa [40]
2 µg/mL: Pseudomonas aeruginosa [28]
0.5 µg/mL: Pseudomonas aeruginosa [1] | Pseudomonas aeruginosa [12] | Pseudomonas aeruginosa [20] | Pseudomonas aeruginosa [26] | Pseudomonas aeruginosa [37] | Pseudomonas aeruginosa [46] | Pseudomonas aeruginosa [50] | Pseudomonas aeruginosa [51]
16 µg/mL: Pseudomonas aeruginosa [31]
1 µg/mL: Pseudomonas aeruginosa [6] | Pseudomonas aeruginosa [14] | Pseudomonas aeruginosa [19]
0.25 µg/mL: all other assays above

C[C@H]1[C@H](NC(=O)/C(=N\OC(C)(C)C(=O)O)c2csc(N)n2)C(=O)N1C(=O)NS(=O)(=O)n1nc(-c2cc(=O)c(O)c[nH]2)n(C)c1=O
1 µg/mL: Pseudomonas aeruginosa [1] | Pseudomonas aeruginosa [12] | Pseudomonas aeruginosa [14] | Pseudomonas aeruginosa [18] | Pseudomonas aeruginosa [37] | Pseudomonas aeruginosa [47] | Pseudomonas aeruginosa [50] | Pseudomonas aeruginosa [51]
0.06 µg/mL: Pseudomonas aeruginosa [17]
0.03 µg/mL: Pseudomonas aeruginosa [38]
0.125 µg/mL: Pseudomonas aeruginosa [5] | Pseudomonas aeruginosa [16] | Pseudomonas aeruginosa [25] | Pseudomonas aeruginosa [27] | Pseudomonas aeruginosa [33] | Pseudomonas aeruginosa [34] | Pseudomonas aeruginosa [35] | Pseudomonas aeruginosa [46] | Pseudomonas aeruginosa [49]
4 µg/mL: Pseudomonas aeruginosa [19]
8 µg/mL: Pseudomonas aeruginosa [28] | Pseudomonas aeruginosa [45]
0.25 µg/mL: Pseudomonas aeruginosa [3] | Pseudomonas aeruginosa [4] | Pseudomonas aeruginosa [8] | Pseudomonas aeruginosa [9] | Pseudomonas aeruginosa [10] | Pseudomonas aeruginosa [20] | Pseudomonas aeruginosa [21] | Pseudomonas aeruginosa [22] | Pseudomonas aeruginosa [26] | Pseudomonas aeruginosa [40] | Pseudomonas aeruginosa [42] | Pseudomonas aeruginosa [44] | Pseudomonas aeruginosa [48]
0.5 µg/mL: all other assays above
